{"source": "patent US20210113659A1", "about": "“ENGINEERED THERAPEUTIC TO ENHANCE CYTOTOXIC ACTIVITY AND PHAGOCYTOSIS IN TUMOR ASSOCIATED MACROPHAGES” (University of Massachusetts, priority 2019, published 2021)", "system": "4T1 cells or B16 F10 cells", "experiment": "Cytotoxic efficacy using MTS assay", "format": "cell-based", "settings": "lower concentrations, 72 h", "method": "Cytotoxic Efficacy of DNTs Using MTS Assay: 5×10^3 4T1 cells or B16 F10 cells per well were seeded in a 96 well plate and left overnight to adhere. The cells were serum starved for 6 h by incubating them in serum free basal medium. The cells were incubated with either free drugs or DNTs of equivalent free drug concentrations for 72 h. The cells were washed with PBS and the medium was replaced with phenol red free DMEM followed by incubation in a mixture of MTS and PMS (1:20) solution for 30 min. Absorbance was measured at 480 nm using a BioTek plate reader. The data was analyzed using graph pad.", "data": [{"smiles": "CC1(N)CCN(c2cnc(-c3cccc(Cl)c3Cl)c(N)n2)CC1.Cl.Cl", "note": "[SHP099, 6-(4-Amino-4-methylpiperidin-1-yl)-3-(2,3-dichlorophenyl)pyrazin-2-amine dihydrochloride]", "values": [{"measurement": "effect on the viability of cancer cells", "result": "did not have a significant effect"}]}]}
